These results are taken from patent US8916570B2 (The United States of America, as represented by the …, priority 2008, dated 2014).

The term Ki denotes a measure of affinity in units of concentration, obtained from inhibition or displacement. For orientation: inhibition means how much of the control response was suppressed.

Assay [1] deals with T1, hA3AR (Homo sapiens, UniProt P0DMS8).
T1 construct: expressed in transfected cells; host or cells: CHO
T1 sequence (P0DMS8 1-318): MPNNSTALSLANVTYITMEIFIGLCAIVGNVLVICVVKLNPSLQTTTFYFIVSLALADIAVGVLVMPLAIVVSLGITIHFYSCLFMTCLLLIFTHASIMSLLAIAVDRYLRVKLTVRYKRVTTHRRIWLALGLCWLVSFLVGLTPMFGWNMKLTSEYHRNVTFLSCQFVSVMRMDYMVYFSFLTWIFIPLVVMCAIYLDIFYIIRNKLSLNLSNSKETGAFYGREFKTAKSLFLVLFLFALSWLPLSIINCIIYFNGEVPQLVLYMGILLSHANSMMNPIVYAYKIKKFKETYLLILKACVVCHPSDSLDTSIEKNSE
The assay is described as follows: Binding at hA3AR, CHO membranes (Example 7). Conditions: read-out: Affinity (Ki, nM) hA3.
Description: (§1) CHO cells stably expressing the recombinant hA1, hA3, and rA3Rs, and HEK-293 cells stably expressing the hA2AAR were cultured in Dulbecco's modified Eagle medium (DMEM) and F12 (1:1) supplemented with 10% fetal bovine serum, 100 units/mL penicillin, 100 μg/mL streptomycin, and 2 μmol/mL glutamine. In addition, 800 μg/mL geneticin was added to the A2A media, while 500 μg/mL hygromycin was added to the A1 and A3 media. After harvesting, cells were homogenized and suspended in PBS. Cells were then centrifuged at 240 g for 5 min, and the pellet was resuspended in 50 mM Tris-HCl buffer (pH 7.5) containing 10 mM MgCl2. The suspension was homogenized and was then ultra-centrifuged at 14,330 g for 30 min at 4° C. […] The protein concentration was measured using the BCA Protein Assay Kit from Pierce Biotechnology, Inc. (Rockford, Ill.).
(§2) Into each tube in the binding assay was added 50 μL of increasing concentrations of the test ligand in Tris-HCl buffer (50 mM, pH 7.5) containing 10 mM MgCl2, 50 μL of the appropriate agonist radioligand, and finally 100 μL of membrane suspension. […] For the A2AAR (20 μg/tube) the radioligand used was [^3H]53 (10 nM). […] Nonspecific binding was determined using a final concentration of 10 μM 51 diluted with the buffer. The mixtures were incubated at 25° C. for 60 min in a shaking water bath. Binding reactions were terminated by filtration through Brandel GF/B filters under a reduced pressure using a M-24 cell harvester (Brandel, Gaithersburg, Md.). Filters were washed three times with 3 mL of 50 mM ice-cold Tris-HCl buffer (pH 7.5). […] Filters for A3AR binding were counted using a Packard COBRA™ II γ-counter. The Ki values were determined using GraphPad Prism for all assays.

In assay [2] the target is T2, hA2AAR (Homo sapiens, UniProt P29274).
T2 construct: expressed in transfected cells
The assay is described as follows: Binding at hA2AAR, HEK-293 membranes (Example 7). The note with it: for inhibition at 10 µM: read-out: % inhibition hA2A; for Ki: read-out: Affinity (Ki, nM) hA2A. The protocol:
After harvesting, cells were homogenized and suspended in PBS.
Nonspecific binding was determined using a final concentration of 10 μM 51 diluted with the buffer.

Assay [3] concerns the target T3, hA1AR (Homo sapiens, UniProt P30542).
T3 construct: expressed in transfected cells; host or cells: CHO
T3 sequence (P30542 1-326): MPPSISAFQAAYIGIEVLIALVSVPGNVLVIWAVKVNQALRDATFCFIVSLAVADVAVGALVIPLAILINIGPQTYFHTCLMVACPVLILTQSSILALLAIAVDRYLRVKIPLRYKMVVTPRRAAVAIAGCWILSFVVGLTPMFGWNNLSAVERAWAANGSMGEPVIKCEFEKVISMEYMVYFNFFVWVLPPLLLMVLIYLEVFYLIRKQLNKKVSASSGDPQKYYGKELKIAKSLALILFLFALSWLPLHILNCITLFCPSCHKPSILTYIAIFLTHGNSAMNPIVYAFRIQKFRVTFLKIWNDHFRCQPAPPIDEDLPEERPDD
The assay is described as follows: Binding at hA1AR, CHO membranes (Example 7). The note with it: read-out: % inhibition hA1.
Description: as §1, §2

T2 sequence (P29274 whole entry): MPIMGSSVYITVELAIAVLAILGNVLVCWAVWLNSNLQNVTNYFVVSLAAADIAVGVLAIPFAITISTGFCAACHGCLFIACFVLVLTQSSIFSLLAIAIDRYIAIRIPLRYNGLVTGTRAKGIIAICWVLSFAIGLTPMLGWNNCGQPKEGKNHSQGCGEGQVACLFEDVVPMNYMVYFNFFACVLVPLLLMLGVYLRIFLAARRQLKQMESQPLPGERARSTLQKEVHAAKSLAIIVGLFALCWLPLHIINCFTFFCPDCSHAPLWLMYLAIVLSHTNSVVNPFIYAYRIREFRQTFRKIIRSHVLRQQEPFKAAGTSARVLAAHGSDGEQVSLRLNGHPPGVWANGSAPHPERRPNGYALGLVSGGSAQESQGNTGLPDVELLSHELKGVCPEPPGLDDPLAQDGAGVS

With `CNC(=O)[C@@]12C[C@@H]1[C@@H](n1cnc3c(NC)nc(C#Cc4cccc5ccccc45)nc31)[C@H](O)[C@@H]2O` [Compound 325, (1S,2R,3S,4R,5S)-2,3-Dihydroxy-N-methyl-4-(6-(methylamino)-2-(naphthalen-1-ylethynyl)-9H-purin-9-yl)bicyclo[3.1.0]hexane-1-carboxamide], the Ki in assay [1] stood at 1.67 ± 0.18 nM. Also, the inhibition at 10 µM in assay [2] amounted to 34%; in assay [3], 24%.

In the case of `CNC(=O)[C@@]12C[C@@H]1[C@@H](n1cnc3c(NCc4cccc(Cl)c4)nc(C#Cc4ccc5ccc6cccc7ccc4c5c67)nc31)[C@H](O)[C@@H]2O` [Compound 336, (1S,2R,3S,4R,5S)-4-(6-(3-Chlorobenzylamino)-2-(pyren-1-ylethynyl)-9H-purin-9-yl)-2,3-dihydroxy-N-methylbicyclo[3.1.0]hexane-1-carboxamide], the Ki in assay [1] came to 68.3 ± 12.5 nM. Also, the inhibition at 10 µM is 66% in assay [2] and 6% in assay [3].

For the molecule `CNC(=O)[C@@]12C[C@@H]1[C@@H](n1cnc3c(NC)nc(C#Cc4cccc(Cl)c4)nc31)[C@H](O)[C@@H]2O` [Compound 315, (1S,2R,3S,4R,5S)-4-(2-((3-Chlorophenyl)ethynyl)-6-(methylamino)-9H-purin-9-yl)-2,3-dihydroxy-N-methylbicyclo[3.1.0]hexane-1-carboxamide], the inhibition constant Ki in assay [1] was 1.6 ± 0.6 nM; in assay [2], 1270 ± 300 nM. Also, the inhibition at 10 µM in assay [3] stood at 11%.

Turning to `CNC(=O)[C@@]12C[C@@H]1[C@@H](n1cnc3c(NC)nc(C#Cc4ccc(C(C)=O)cc4)nc31)[C@H](O)[C@@H]2O` [Compound 323, (1S,2R,3S,4R,5S)-4-(2-((4-Acetylphenyl)ethynyl)-6-(methylamino)-9H-purin-9-yl)-2,3-dihydroxy-N-methylbicyclo[3.1.0]hexane-1-carboxamide], the Ki in assay [1] came to 2.57 ± 0.78 nM. The inhibition at 10 µM in assay [2] stood at 62%; in assay [3] it was 8%.

On to `CNC(=O)[C@@]12C[C@@H]1[C@@H](n1cnc3c(NC)nc(C#Cc4cc(F)cc(F)c4)nc31)[C@H](O)[C@@H]2O` [Compound 320, (1S,2R,3S,4R,5S)-4-(2-((3,5-Difluorophenyl)ethynyl)-6-(methylamino)-9H-purin-9-yl)-2,3-dihydroxy-N-methylbicyclo[3.1.0]hexane-1-carboxamide], for which, in assay [1], the Ki was determined as 1.66 ± 0.36 nM. Moreover, the figures for the inhibition at 10 µM in assay [2] and in assay [3] were 47% and 6%, respectively.

For the molecule `CNC(=O)[C@@]12C[C@@H]1[C@@H](n1cnc3c(NC)nc(C#Cc4ccc(Cl)cc4)nc31)[C@H](O)[C@@H]2O` [Compound 316, (1S,2R,3S,4R,5S)-4-(2-((4-Chlorophenyl)ethynyl)-6-(methylamino)-9H-purin-9-yl)-2,3-dihydroxy-N-methylbicyclo[3.1.0]hexane-1-carboxamide], in assay [1], the inhibition constant (Ki) is 1.22 ± 0.31 nM. Moreover, the values for the inhibition at 10 µM in assay [2] and in assay [3] were 30% and 13%, respectively.

In the case of `CNC(=O)[C@@]12C[C@@H]1[C@@H](n1cnc3c(NC)nc(C#Cc4ccc(-c5ccccc5)cc4)nc31)[C@H](O)[C@@H]2O` [Compound 324, (1S,2R,3S,4R,5S)-4-(2-(Biphenyl-4-ylethynyl)-6-(methylamino)-9H-purin-9-yl)-2,3-dihydroxy-N-methylbicyclo[3.1.0]hexane-1-carboxamide], in assay [1], the Ki was 3.1 ± 1.26 nM. The inhibition at 10 µM in assay [2] stood at 29%; in assay [3], 20%.

`CNC(=O)[C@@]12C[C@@H]1[C@@H](n1cnc3c(NCc4cccc(Cl)c4)nc(C#Cc4ccc(F)c(F)c4)nc31)[C@H](O)[C@@H]2O` [Compound 331, (1S,2R,3S,4R,5S)-4-(6-(3-Chlorobenzylamino)-2-((3,4-difluorophenyl)ethynyl)-9H-purin-9-yl)-2,3-dihydroxy-N-methylbicyclo[3.1.0]hexane-1-carboxamide]: the inhibition at 10 µM stood at 41% in assay [2] and 3% in assay [3].

Take `CNC(=O)[C@@]12C[C@@H]1[C@@H](n1cnc3c(NC)nc(C#Cc4ccc(C(C)(C)C)cc4)nc31)[C@H](O)[C@@H]2O` [Compound 322, (1S,2R,3S,4R,5S)-4-(2-((4-tert-Butylphenyl)ethynyl)-6-(methylamino)-9H-purin-9-yl)-2,3-dihydroxy-N-methylbicyclo[3.1.0]hexane-1-carboxamide]: the Ki in assay [1] was 10.1 ± 1.9 nM. For the same molecule, the inhibition at 10 µM was found to be 7% in assay [2] and 27% in assay [3].

Turning to `CNC(=O)[C@@]12C[C@@H]1[C@@H](n1cnc3c(NC)nc(C#Cc4ccccc4F)nc31)[C@H](O)[C@@H]2O` [Compound 311, (1S,2R,3S,4R,5S)-4-(2-((2-Fluorophenyl)ethynyl)-6-(methylamino)-9H-purin-9-yl)-2,3-dihydroxy-N-methylbicyclo[3.1.0]hexane-1-carboxamide], the Ki in assay [1] turned out to be 0.97 ± 0.38 nM. The inhibition at 10 µM in assay [2] was found to be 17%; in assay [3], 20%.

Consider `CNC(=O)[C@@]12C[C@@H]1[C@@H](n1cnc3c(NC)nc(C#Cc4ccc(Br)cc4)nc31)[C@H](O)[C@@H]2O` [Compound 317, (1S,2R,3S,4R,5S)-4-(2-((4-Bromophenyl)ethynyl)-6-(methylamino)-9H-purin-9-yl)-2,3-dihydroxy-N-methylbicyclo[3.1.0]hexane-1-carboxamide], for which the Ki in assay [1] amounted to 0.91 ± 0.06 nM. In addition, the inhibition at 10 µM in assay [2] turned out to be 26%; in assay [3] it was 11%.

With `CNC(=O)[C@@]12C[C@@H]1[C@@H](n1cnc3c(NC)nc(C#Cc4ccccc4)nc31)[C@H](O)[C@@H]2O` [Compound 309, (1S,2R,3S,4R,5S)-2,3-Dihydroxy-N-methyl-4-(6-(methylamino)-2-(phenylethynyl)-9H-purin-9-yl)bicyclo[3.1.0]hexane-1-carboxamide], the inhibition at 10 µM in assay [2] turned out to be 14%; in assay [3], 18%.

As to `CNC(=O)[C@@]12C[C@@H]1[C@@H](n1cnc3c(NC)nc(C#Cc4cccc(N)c4)nc31)[C@H](O)[C@@H]2O` [Compound 318, (1S,2R,3S,4R,5S)-4-(2-((3-Aminophenyl)ethynyl)-6-(methylamino)-9H-purin-9-yl)-2,3-dihydroxy-N-methylbicyclo[3.1.0]hexane-1-carboxamide], the Ki in assay [1] was found to be 1.07 ± 0.14 nM. In addition, the results for the inhibition at 10 µM in assay [2] and in assay [3] were 19% and 16%, respectively.

Regarding `CNC(=O)[C@@]12C[C@@H]1[C@@H](n1cnc3c(NC)nc(C#Cc4cc5ccccc5c5ccccc45)nc31)[C@H](O)[C@@H]2O` [Compound 326, (1S,2R,3S,4R,5S)-2,3-Dihydroxy-N-methyl-4-(6-(methylamino)-2-(phenanthren-9-ylethynyl)-9H-purin-9-yl)bicyclo[3.1.0]hexane-1-carboxamide], in assay [1], the Ki turned out to be 3.48 ± 1.36 nM. Also, the inhibition at 10 µM in assay [2] is 52%; in assay [3] it was 15%.

Consider `CNC(=O)[C@@]12C[C@@H]1[C@@H](n1cnc3c(NC)nc(C#Cc4cccc(F)c4)nc31)[C@H](O)[C@@H]2O` [Compound 312, (1S,2R,3S,4R,5S)-4-(2-((3-Fluorophenyl)ethynyl)-6-(methylamino)-9H-purin-9-yl)-2,3-dihydroxy-N-methylbicyclo[3.1.0]hexane-1-carboxamide], for which, in assay [1], the Ki came out at 0.97 ± 0.24 nM. Besides, the inhibition at 10 µM was found to be 10% in assay [2] and 14% in assay [3].

For the molecule `CCc1ccc(C#Cc2nc(NC)c3ncn([C@H]4[C@H](O)[C@H](O)[C@]5(C(=O)NC)C[C@H]45)c3n2)cc1` [Compound 321, (1S,2R,3S,4R,5S)-4-(2-((4-Ethylphenyl)ethynyl)-6-(methylamino)-9H-purin-9-yl)-2,3-dihydroxy-N-methylbicyclo[3.1.0]hexane-1-carboxamide], in assay [1], the Ki was determined as 3.78 ± 1.16 nM. In addition, the inhibition at 10 µM in assay [2] amounted to 38%; in assay [3], 14%.

Consider `CNC(=O)[C@@]12C[C@@H]1[C@@H](n1cnc3c(NCc4cccc(Cl)c4)nc(C#Cc4cccc(Cl)c4)nc31)[C@H](O)[C@@H]2O` [Compound 330, (1S,2R,3S,4R,5S)-4-(6-(3-Chlorobenzylamino)-2-((3-chlorophenyl)ethynyl)-9H-purin-9-yl)-2,3-dihydroxy-N-methylbicyclo[3.1.0]hexane-1-carboxamide], for which the Ki in assay [1] was found to be 1.95 nM; in assay [2] it was 1620 nM. Also, the inhibition at 10 µM in assay [3] was 0%.

With `CNC(=O)[C@@]12C[C@@H]1[C@@H](n1cnc3c(NC)nc(C#Cc4ccccn4)nc31)[C@H](O)[C@@H]2O` [Compound 310, (1S,2R,3S,4R,5S)-2,3-Dihydroxy-N-methyl-4-(6-(methylamino)-2-(pyridin-2-ylethynyl)-9H-purin-9-yl)bicyclo[3.1.0]hexane-1-carboxamide], the inhibition at 10 µM in assay [2] and in assay [3] was 13% in each case.
